# From US12636270B2, “Levothyroxine liquid formulations” (Fresenius Kabi USA, LLC, priority 2016, dated 2026)
# Like-named read-outs stand apart in the source and are kept apart here.
# Settings: 55° C., 1 W, 20 mcg/mL, glycerol 100 mg/mL, normal saline
# Description: The HPLC conditions were as follows: • Column: Waters […]™ C8 (5 μm, 4.6×150 mm) HPLC column • Mobile Phase A: Sodium heptanesulfonate/Acetonitrile/Water/Methanol/H3PO4 (4.023 g/800 mL/1600 mL/1600 mL/4 mL) • Mobile Phase B: Sodium heptanesulfonate/Acetonitrile/Water/Methanol/H3PO4 (2.013 g/1000 mL/100 mL/900 mL/2 mL) • Diluent: 0.01 N NaOH • Column temperature: 25° C. • Flow rate: 1.5 mL/min • Injection volume: 40-200 μL • Autosampler temperature: 5° C. • Detection: UV at 225 nm • Separation mode: Gradient Gradient Program:
# Separate samples containing levothyroxine sodium at a concentration of 20 mcg/mL and glycerol at a concentration of 100 mg/mL in normal saline were adjusted to pH levels of 7, 8, and 9. 5 mL of each sample was filled into 10 cc amber tubing vials, and the vials were stoppered with 20 mm stoppers under nitrogen. The samples were stored at a temperature of 55° C. The samples were analyzed by HPLC at 1 week of storage using the HPLC conditions described in Example 1. The results for liothyronine, largest unknown impurity, and total impurities as determined by peak area percent are set forth in Table 7.
structure (smiles),measurement,setting,value
"N[C@@H](Cc1cc(I)c(Oc2cc(I)c(O)c(I)c2)c(I)c1)C(=O)[O-].[Na+] [Levothyroxine Na, 4-(4-hydroxy-3,5-diiodophenoxy)-3,5-diiodo-L-phenylalanine sodium]",% Liothyronine,pH 7,3.6%
same,% largest unknown impurity,pH 7,1.16%
same,% total impurities,pH 7,5.3%
same,% Liothyronine,pH 8,3.4%
same,% largest unknown impurity,pH 8,1.30%
same,% total impurities,pH 8,5.4%
same,% Liothyronine,pH 9,2.4%
same,% largest unknown impurity,pH 9,0.82%
same,% total impurities,pH 9,3.8%
